Drawing on US11591355B2 (Peloton Therapeutics, Inc., priority 2017, dated 2023), this text covers IC50 for 19 compounds.

For assay [1], the target named is T1, Human CD73 (Homo sapiens, UniProt P21589).
T1 construct: purchased R&D Systems; host or cells: CHO cells
T1 sequence (P21589 27-549): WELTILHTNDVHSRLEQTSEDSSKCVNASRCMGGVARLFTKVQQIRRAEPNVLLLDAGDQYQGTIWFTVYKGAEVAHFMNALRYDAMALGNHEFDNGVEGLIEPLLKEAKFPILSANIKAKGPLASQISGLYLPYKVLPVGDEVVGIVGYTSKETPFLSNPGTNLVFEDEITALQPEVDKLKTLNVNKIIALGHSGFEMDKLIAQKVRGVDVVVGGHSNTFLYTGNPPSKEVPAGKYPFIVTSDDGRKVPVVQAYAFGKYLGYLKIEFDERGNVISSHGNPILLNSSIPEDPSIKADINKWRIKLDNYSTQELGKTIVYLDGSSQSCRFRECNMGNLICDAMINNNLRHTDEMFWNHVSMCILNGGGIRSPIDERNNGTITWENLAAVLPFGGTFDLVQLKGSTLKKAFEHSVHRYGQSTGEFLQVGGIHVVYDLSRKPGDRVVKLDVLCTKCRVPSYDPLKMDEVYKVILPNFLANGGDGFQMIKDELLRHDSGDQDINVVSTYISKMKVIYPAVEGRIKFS
As to the kind of experiment: CD73 Enzyme Assay. It counts as biochemical. Particulars: 0.25 nM hCD73, 25 μM AMP, kinetic read at 360 nm; read-out: CD73 Enzyme Assay IC50.

Assay [2] addresses T2, CD73 on U138 human neuroglioma cells (Homo sapiens, UniProt P21589).
T2 construct: U138 cells were obtained from ATCC and cultured in DMEM with 10% FBS; host or cells: U138 human neuroglioma cells
T2 sequence (P21589 27-549): T1 sequence (P21589 27-549)
As to the kind of experiment: CD73 Cell-Based Assay. Particulars: U138 cells, AMP substrate, 2 hours at 37° C., inorganic phosphate by malachite green. Put shortly:
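Whole U138 cells washed free of phosphate were incubated with 200 μM AMP (mixture concentration before equal-volume addition) plus compound in HEPES-buffered saline, pH 7.4, for 2 h at 37 °C, 5% CO2. Adenosine-forming activity read as inorganic phosphate released into supernatant by malachite green.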

For `N#Cc1cn([C@@H]2O[C@H](COCP(=O)(O)O)[C@@H](O)[C@H]2O)c2nc(Cl)nc(NC3CCCC3)c12` [Compound 209, [(2R,3S,4R,5R)-5-[2-chloro-5-cyano-4-(cyclopentylamino)-pyrrolo[2,3-d]-pyrimidin-7-yl]-3,4-dihydroxy-tetrahydro-furan-2-yl]methoxy-methylphosphonic acid], the IC50 in assay [1] and in assay [2] was 100 to 1000 nM throughout.
For the compound `N#Cc1nc(NC2CCOCC2)c2ccn([C@@H]3O[C@H](COCP(=O)(O)O)[C@@H](O)[C@H]3O)c2n1` [Compound 120, [(2R,3S,4R,5R)-5-[2-cyano-4-(tetrahydro-pyran-4-ylamino)-pyrrolo[2,3-d]-pyrimidin-7-yl]-3,4-dihydroxy-tetrahydro-furan-2-yl]methoxy-methylphosphonic acid], the IC50 in assay [1] lay within 100 to 1000 nM; in assay [2], 10 to 100 nM.
For `Cc1ccc([C@H](C)Nc2nc(C#N)nc3c2ccn3[C@@H]2O[C@H](COCP(=O)(O)O)[C@@H](O)[C@H]2O)cc1` [Compound 91, [(2R,3S,4R,5R)-5-[2-cyano-4-[[(1S)-1-(p-tolyl)ethyl]amino]-pyrrolo[2,3-d]-pyrimidin-7-yl]-3,4-dihydroxy-tetrahydro-furan-2-yl]methoxy-methylphosphonic acid], the IC50 in assay [1] and in assay [2] was less than 10 nM each time.
`O=P(O)(O)CS(=O)(=O)C[C@H]1O[C@@H](n2ccc3c(N4CCCC4)nc(Cl)nc32)[C@H](O)[C@@H]1O` [Compound 163, [(2S,3S,4R,5R)-5-(2-chloro-4-pyrrolidin-1-yl-pyrrolo[2,3-d]-pyrimidin-7-yl)-3,4-dihydroxy-tetrahydro-furan-2-yl]methyl-sulfonylmethylphos-phonic acid]: the IC50 in assay [1] and in assay [2] was 10 to 100 nM in each case.
Regarding `Cc1ccc([C@@H](C)Nc2nc(C#N)nc3c2ccn3[C@@H]2O[C@H](COCP(=O)(O)O)[C@@H](O)[C@H]2O)cc1` [Compound 137, [(2R,3S,4R,5R)-5-[2-cyano-4-[[(1R)-1-(p-tolyl)ethyl]amino]-pyrrolo[2,3-d]-pyrimidin-7-yl]-3,4-dihydroxy-tetrahydro-furan-2-yl]methoxy-methylphosphonic acid], the figures for the IC50 in assay [1] and in assay [2] were 10 to 100 nM and less than 10 nM, respectively.
Turning to `COc1nc(NC2CCCC2)c2ccn([C@@H]3O[C@H](COCP(=O)(O)O)[C@@H](O)[C@H]3O)c2n1` [Compound 247, [(2R,3S,4R,5R)-5-[4-(cyclopentylamino)-2-methoxy-pyrrolo[2,3-d]pyrimidin-7-yl]-3,4-dihydroxy-tetrahydro-furan-2-yl]methoxy-methylphosphonic acid], the IC50 in assay [1] and in assay [2] was 10 to 100 nM throughout.
As to `C[C@H](Nc1nc(Cl)nc2c1cnn2[C@@H]1O[C@H](COCP(=O)(O)O)[C@@H](O)[C@H]1O)c1ccc(F)cc1` [Compound 265, [(2R,3S,4R,5R)-5-[6-chloro-4-[[(1S)-1-(4-fluorophenyl)ethyl]-amino]pyrazolo[3,4-d]-pyrimidin-1-yl]-3,4-dihydroxy-tetrahydro-furan-2-yl]methoxy-methylphosphonic acid], the IC50 in assay [1] and in assay [2] was 10 to 100 nM each time.
For `N#Cc1nc(NC2CCCC2)c2ccn([C@@H]3O[C@H](COCP(=O)(O)O)[C@@H](O)[C@H]3O)c2n1` [Compound 71, [(2R,3S,4R,5R)-5-[2-cyano-4-(cyclopentyl-amino)pyrrolo[2,3-d]-pyrimidin-7-yl]-3,4-dihydroxy-tetrahydro-furan-2-yl]methoxy-methylphosphonic acid], the IC50 in assay [1] and in assay [2] was less than 10 nM each time.
For the compound `O=P(O)(COC[C@H]1O[C@@H](n2ccc3c(NC4CCCC4)nc(Cl)nc32)[C@H](O)[C@@H]1O)OCC(F)(F)F` [Compound 232, [(2R,3S,4R,5R)-5-[2-chloro-4-(cyclopentyl-amino)pyrrolo[2,3-d]-pyrimidin-7-yl]-3,4-dihydroxy-tetrahydro-furan-2-yl]methoxy-methyl-(2,2,2-trifluoro-ethoxy)phosphinic acid], the IC50 in assay [1] and in assay [2] was 10 to 100 nM throughout.
In the case of `CC(C)C(=O)OCOP(=O)(O)COC[C@H]1O[C@@H](n2ccc3c(NC4CCCC4)nc(Cl)nc32)[C@H](O)[C@@H]1O` [Compound 194, [(2R,3S,4R,5R)-5-[2-chloro-4-(cyclopentyl-amino)pyrrolo[2,3-d]-pyrimidin-7-yl]-3,4-dihydroxy-tetrahydro-furan-2-yl]methoxy-methyl-(2-methyl-propanoyloxymeth-oxy)phosphinic acid], the IC50 in assay [1] and in assay [2] was less than 10 nM throughout.
In the case of `C[C@@H](Nc1nc(Cl)nc2c1ccn2[C@@H]1O[C@H](COCP(=O)(O)O)[C@@H](O)[C@H]1O)c1ccc(F)cc1F` [Compound 144, [(2R,3S,4R,5R)-5-[2-chloro-4-[[(1R)-1-(2,4-difluorophenyl)-ethyl]amino]pyrrolo-[2,3-d]pyrimidin-7-yl]-3,4-dihydroxy-tetrahydrofuran-2-yl]-methoxymethylphos-phonic acid], the 50% inhibitory concentration (IC50) in assay [1] and in assay [2] was less than 10 nM throughout.
In the case of `O=P(O)(O)COC[C@H]1O[C@@H](n2ccc3c(N4CCC[C@@H]4CO)nc(Cl)nc32)[C@H](O)[C@@H]1O` [Compound 283, [(2R,3S,4R,5R)-5-[2-chloro-4-[(2R)-2-(hydroxymethyl)-pyrrolidin-1-yl]-pyrrolo[2,3-d]-pyrimidin-7-yl]-3,4-dihydroxy-tetrahydro-furan-2-yl]methoxy-methylphosphonic acid], the IC50 in assay [1] lay in the range of 10 to 100 nM; in assay [2] it was 100 to 1000 nM.
Taken in the same sequence, the figures for `O=P(O)(O)COC[C@H]1O[C@@H](n2cnc3c(NCc4ccccc4)nc(Cl)nc32)[C@H](O)[C@@H]1O` [Compound 3, [(2R,3S,4R,5R)-5-[6-(benzylamino)-2-chloro-purin-9-yl]-3,4-dihydroxy-tetrahydrofuran-2-yl]methoxymethyl-phosphonic acid] were 100 to 1000 nM and 10 to 100 nM.
On to `O=P(O)(O)COC[C@H]1O[C@@H](n2ccc3c(NC4CCC4)nc(Cl)nc32)[C@H](O)[C@@H]1O` [Compound 109, [(2R,3S,4R,5R)-5-[2-chloro-4-(cyclobutyl-amino)pyrrolo[2,3-d]-pyrimidin-7-yl]-3,4-dihydroxy-tetrahydro-furan-2-yl]methoxy-methylphosphonic acid], for which the IC50 in assay [1] and in assay [2] was less than 10 nM each time.
Consider `C[C@H](Nc1nc(C#N)nc2c1ccn2[C@@H]1O[C@H](COCP(=O)(O)O)[C@@H](O)[C@H]1O)c1ccccc1F` [Compound 80, [(2R,3S,4R,5R)-5-[2-cyano-4-[[(1S)-1-(2-fluorophenyl)ethyl]-amino]pyrrolo[2,3-d]-pyrimidin-7-yl]-3,4-dihydroxy-tetrahydro-furan-2-yl]methoxy-methylphosphonic acid], for which the IC50 in assay [1] and in assay [2] was less than 10 nM each time.
With `C[C@H](Nc1nc(C#N)nc2c1ccn2[C@@H]1O[C@H](COCP(=O)(O)O)[C@@H](O)[C@H]1O)c1ccc(C2CC2)cc1` [Compound 204, [(2R,3S,4R,5R)-5-[2-cyano-4-[[(1S)-1-(4-cyclopropylphenyl)-ethyl]amino]pyrrolo-[2,3-d]pyrimidin-7-yl]-3,4-dihydroxy-tetra-hydrofuran-2-yl]-methoxymethylphos-phonic acid], the IC50 in assay [1] and in assay [2] was less than 10 nM in each case.
As to `Cc1cn([C@@H]2O[C@H](COCP(=O)(O)O)[C@@H](O)[C@H]2O)c2nc(Cl)nc(NC3CCCC3)c12` [Compound 199, [(2R,3S,4R,5R)-5-[2-chloro-4-(cyclopentyl-amino)-5-methyl-pyrrolo[2,3-d]-pyrimidin-7-yl]-3,4-dihydroxy-tetrahydro-furan-2-yl]methoxy-methylphosphonic acid], the IC50 in assay [1] and in assay [2] was more than 1000 nM each time.
In the case of `CC(C)C#Cc1nc(NC2CCCC2)c2ccn([C@@H]3O[C@H](COCP(=O)(O)O)[C@@H](O)[C@H]3O)c2n1` [Compound 253, [(2R,3S,4R,5R)-5-[4-(cyclopentylamino)-2-(3-methylbut-1-ynyl)pyrrolo[2,3-d]-pyrimidin-7-yl]-3,4-dihydroxy-tetrahydro-furan-2-yl]methoxy-methylphosphonic acid], the half-maximal inhibitory concentration (IC50) in assay [1] and in assay [2] was less than 10 nM throughout.
For `CC[C@H](Nc1nc(Cl)nc2c1ccn2[C@@H]1O[C@H](COCP(=O)(O)O)[C@@H](O)[C@H]1O)c1ccccc1` [Compound 84, [(2R,3S,4R,5R)-5-[2-chloro-4-[[(1S)-1-phenylpropyl]amino]-pyrrolo[2,3-d]-pyrimidin-7-yl]-3,4-dihydroxy-tetrahydro-furan-2-yl]methoxy-methylphosphonic acid], the IC50 in assay [1] and in assay [2] was less than 10 nM throughout.

The term IC50 denotes the concentration that gives 50% inhibition.
